The record followed here is US4713374A, “Ganglioside derivatives” (priority 1984, dated 1987).

This assay concerns PC12 cells. Kind of assay: Neurite sprouting in PC12 cells. The format is cell-based. To be noted: 10^-6 M, serum-free vehicle with 50 ng/ml NGF, third day; controls 21.5.
Experimental: The cells are then washed three times in a serum-free vehicle. […] This effect is evaluated by counting the number of cells with neurites at the third day.
`CCCCCCCCCCCCC/C=C/[C@@H](O)[C@H](CO[C@@H]1O[C@H](CO)[C@@H](O[C@@H]2O[C@H](CO)[C@H](O[C@@H]3O[C@H](CO)[C@H](O)[C@H](O[C@@H]4O[C@H](CO)[C@H](O)[C@H](O)[C@H]4O)[C@H]3NC(C)=O)[C@H](O[C@]3(C(=O)NCCCCCCO)C[C@H](O)[C@@H](NC(C)=O)[C@H]([C@H](O)[C@H](O)CO)O3)[C@H]2O)[C@H](O)[C@H]1O)NC(=O)CCCCCCCCCCCCCCCCC` [6-hydroxyhexyl-1-amide of GM1, 6-hydroxyhexyl-1-amide of the ganglioside GM1]: the “% of the no. of cells with neurites at 3rd day” value (shortened to “% of the no. of cells”) is 36.4%.

`CCCCCCCCCCCCC/C=C/[C@@H](O)[C@H](CO[C@@H]1O[C@H](CO)[C@@H](O[C@@H]2O[C@H](CO)[C@H](O[C@@H]3O[C@H](CO)[C@H](O)[C@H](O[C@@H]4O[C@H](CO)[C@H](O)[C@H](O)[C@H]4O)[C@H]3NC(C)=O)[C@H](O[C@]3(C(=O)NCCCN(C)C)C[C@H](O)[C@@H](NC(C)=O)[C@H]([C@H](O)[C@H](O)CO)O3)[C@H]2O)[C@H](O)[C@H]1O)NC(=O)CCCCCCCCCCCCCCCCC` [3-dimethylaminopropyl-1-amide of GM1, 3-dimethylaminopropyl-1-amide of the ganglioside GM1]: the “% of the no. of cells” value is on record as 37.3%.

Regarding `CCCCCCCCCCCCC/C=C/[C@@H](OC(C)=O)[C@H](CO[C@@H]1O[C@H](COC(C)=O)[C@@H](O[C@@H]2O[C@H](COC(C)=O)[C@H](O[C@@H]3O[C@H](COC(C)=O)[C@H](OC(C)=O)[C@H](O[C@@H]4O[C@H](COC(C)=O)[C@H](OC(C)=O)[C@H](OC(C)=O)[C@H]4OC(C)=O)[C@H]3NC(C)=O)[C@H](O[C@]3(C(=O)OC)C[C@H](OC(C)=O)[C@@H](NC(C)=O)[C@H]([C@H](OC(C)=O)[C@@H](COC(C)=O)OC(C)=O)O3)[C@H]2OC(C)=O)[C@H](OC(C)=O)[C@H]1OC(C)=O)NC(=O)CCCCCCCCCCCCCCCCC` [Methylic ester of peracetylated GM1, Peracetylated derivative of the methyl ester of the ganglioside GM1], the “% of the no. of cells” value was found to be 29.4%.

Regarding `C=CCOC(=O)[C@@]1(O[C@@H]2[C@@H](O)[C@H](O[C@H]3[C@H](O)[C@@H](O)[C@H](OC[C@H](NC(=O)CCCCCCCCCCCCCCCCC)[C@H](O)/C=C/CCCCCCCCCCCCC)O[C@@H]3CO)O[C@H](CO)[C@@H]2O[C@@H]2O[C@H](CO)[C@H](O)[C@H](O[C@@H]3O[C@H](CO)[C@H](O)[C@H](O)[C@H]3O)[C@H]2NC(C)=O)C[C@H](O)[C@@H](NC(C)=O)[C@H]([C@H](O)[C@H](O)CO)O1` [Allylic ester of GM1, Allyl ester of the ganglioside GM1], the “% of the no. of cells” value came to 31.5%.

On to `CCCCCCCCCCCCC/C=C/[C@@H](O)[C@H](CO[C@@H]1O[C@H](CO)[C@@H](O[C@@H]2O[C@H](CO)[C@H](O[C@@H]3O[C@H](CO)[C@H](O)[C@H](O[C@@H]4O[C@H](CO)[C@H](O)[C@H](O)[C@H]4O)[C@H]3NC(C)=O)[C@H](O[C@]3(C(=O)N(C)C)C[C@H](O)[C@@H](NC(C)=O)[C@H]([C@H](O)[C@H](O)CO)O3)[C@H]2O)[C@H](O)[C@H]1O)NC(=O)CCCCCCCCCCCCCCCCC` [Dimethylamide of GM1, Dimethylamide of the ganglioside GM1], for which the “% of the no. of cells” value was 34.3%.

With `CCCCCCCCCCCCC/C=C/[C@@H](O)[C@H](CO[C@@H]1O[C@H](CO)[C@@H](O[C@@H]2O[C@H](CO)[C@H](O[C@@H]3O[C@H](CO)[C@H](O)[C@H](O[C@@H]4O[C@H](CO)[C@H](O)[C@H](O)[C@H]4O)[C@H]3NC(C)=O)[C@H](O[C@]3(C(=O)N(CC)CC)C[C@H](O)[C@@H](NC(C)=O)[C@H]([C@H](O)[C@H](O)CO)O3)[C@H]2O)[C@H](O)[C@H]1O)NC(=O)CCCCCCCCCCCCCCCCC` [Diethylamide of GM1, Diethylamide of the ganglioside GM1], the “% of the no. of cells” value is listed as 28.5%.
